Measurements as given in patent US20110263693A1, “CELASTROL, GEDUNIN, AND DERIVATIVES THEREOF AS HSP90 INHIBITORS” (DANA-FARBER CANCER INSTITUTE, INC., priority 2006, published 2011).

Tests used:
[1] = test system: LNCaP cells; assay: Viability screen, luminescent ATP quantitation assay; settings: 1 nM R1881 plus compound ~20 μM, 3 days
[2] = test system: androgen signaling signature in LNCaP cells; assay: GE-HTS androgen signaling signature assay / screen; settings: LNCaP, 1 nM R1881 plus compound ~20 μM, 24 hr; count of 3 replicates
[3] = test system: celastrol signature; assay: Connectivity Map query with the celastrol signature; type: cell-based, human; parameters: key to celastrol score (connectivity score): connectivity score, based on Kolmogorov-Smirnov statistic
How it was run: (§1)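 LNCaP cells received celastrol 1.25 μM or gedunin 20 μM for 6 h. Each signature was scored by Kolmogorov–Smirnov-based connectivity against 453 build01 profiles, mostly 6 h treatments of MCF7 cells.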

[4] = test system: celastrol and gedunin signatures; assay: Connectivity Map query with the celastrol and gedunin signatures (joint); type: cell-based, human; settings: Connectivity Map profiles, 6 hr
From the text: Indeed, a major challenge in cell-based chemical biology and chemical genomics is the identification of compounds' targets (Gardner et al., 2003). We hypothesized that gene expression signatures could be used to identify compound action based on the similarity of such compound-induced signatures to signatures of existing drugs of known mechanism. We therefore employed a collection of gene expression profiles of drug-treated cell lines that was developed in our lab, termed the Connectivity Map (Lamb et al., 2006). This database comprises 453 genome-wide Affymetrix expression profiles derived from the treatment of human cell lines with 164 small molecules, primarily FDA-approved drugs. A 6 hr treatment time was chosen in an attempt to capture the primary, and potentially mechanistic, effects of the compounds rather than the downstream phenotypic consequences.
In order to use the Connectivity Map to gain insight into celastrol and gedunin function, we first defined a gene expression signature of celastrol and gedunin activity. The expression signatures of celastrol and gedunin were derived by expression profiling of RNA from LNCaP cells treated with celastrol (1.25 μM), gedunin (20 μM), and vehicle (DMSO) for 6 hr; signatures were defined using comparative marker selection to identify transcripts that distinguished between the compound- and vehicle-treated profiles by the signal-to-noise (SNR) metric. The enrichment of these signatures in the gene expression profiles of the Connectivity Map database was then assessed using a gene enrichment metric, the connectivity score, based on the Kolmogorov-Smirnov statistic (Lamb et al., 2003).
The celastrol and gedunin signatures were developed from RMA-processed microarray data from LNCaP cells treated with 1.25 μM celastrol or 20 μM gedunin for 6 hours. Comparative marker selection was used to identify markers that distinguished celastrol- and/or gedunin-treated samples from vehicle-treated samples by the median SNR (Golub et al., 1999). […]

[5] = test system: gedunin signature; assay: Connectivity Map query with the gedunin signature; type: cell-based, human; parameters: key to gedunin score (connectivity score): connectivity score, based on Kolmogorov-Smirnov statistic
How it was run: as §1

Molecule | viability screen: viability (% [ATP] normalized to R1881-treated control) [1] [%] | GE-HTS screen # replicates that score as the androgon deprived state (n = 3): KNN [2] | GE-HTS screen # replicates that score as the androgon deprived state (n = 3): Naïve Bayes classifier (P < 0.05) [2] | GE-HTS screen # replicates that score as the androgon deprived state (n = 3): unweighted summed score (P < 0.05) [2] | GE-HTS screen # replicates that score as the androgon deprived state (n = 3): weighted summed score (P < 0.05) [2] | celastrol score (connectivity score) ([3]; enrichment of the celastrol signature (1.25 μM celastrol at 6 h, LNCaP) in the compound's Connectivity Map profiles, 6 hr treatment) | celastrol rank ([3]; rank by celastrol score among 164 Connectivity Map compounds) | similarity of gene expression profile to the celastrol and gedunin signatures [4] | gedunin score (connectivity score) ([5]; enrichment of the gedunin signature (20 μM gedunin at 6 hours, LNCaP) in the compound's Connectivity Map profiles, 6 hr treatment) | connectivity scores for the gedunin signature ([5]; multiple instances, gedunin signature from LNCaP, 6 hours) | gedunin rank ([5]; rank by gedunin score among 164 Connectivity Map compounds)
CC(=O)O[C@H]1CC[C@]2(C)C(C[C@@H](OC(C)=O)[C@]3(C)C4=CC(=O)O[C@H](c5ccoc5)[C@@]4(C)CCC23)C1(C)C (stereo partly drawn) [3-deoxo-3beta-acetoxydeoxydihydrogedunin] | 51.0 | 3 | 3 | 3 | 3 |  |  |  |  |  | 
CO[C@H]1/C=C\C=C(/C)C(=O)NC2=CC(=O)C(NCCN(C)C)=C(C[C@@H](C)C[C@H](OC)[C@H](O)[C@@H](C)/C=C(\C)[C@@H]1OC(N)=O)C2=O [17-DMAG, 17-dimethylaminoethylamino-17-demethoxy-geldanamycin, reference compound] |  |  |  |  |  | 0.766 | 6 | very strong similarity | 0.73 | High connectivity scores | 5
CCCCCCCCCCCCCCCC[N+](C)(C)C.[Br-] [cetrimonium bromide, reference compound] | 109.7 | 3 | 3 | 0 | 0 |  |  |  |  |  | 
CC1(C)C(=O)C=C[C@]2(C)[C@H]3CC[C@@]4(C)[C@H](c5ccoc5)OC(=O)[C@H]5O[C@]54[C@]3(C)C(=O)C[C@@H]12 [deacetoxy-7-oxogedunin] | 69.0 | 3 | 3 | 3 | 3 |  |  |  |  |  | 
CC(=O)O[C@@H]1CC2C(C)(C)CCC[C@]2(C)C2CC[C@]3(C)C(=CC(=O)O[C@H]3c3ccoc3)[C@@]21C (stereo partly shown) [deoxodeoxydihydrogedunin] |  | 0 | 3 | 2 | 2 |  |  |  |  |  | 
CC(=O)O[C@@H]1C[C@H]2C(C)(C)C(=O)C=C[C@]2(C)[C@H]2CC[C@]3(C)C(=CC(=O)O[C@H]3c3ccoc3)[C@@]21C [deoxygedunin] | 63.3 | 2 | 2 | 3 | 3 |  |  |  |  |  | 
CC1(C)C(=O)CC[C@]2(C)[C@H]3CC[C@]4(C)C(=CC(=O)O[C@H]4c4ccoc4)[C@]3(C)[C@H](O)C[C@@H]12 [dihydro-7-desacetyldeoxygedunin] |  | 3 | 2 | 2 | 1 |  |  |  |  |  | 
CN(C)CCOC(c1ccccc1)c1ccccc1.Cn1c(=O)c2[nH]c(Cl)nc2n(C)c1=O [dimenhydrinate, reference compound] |  | 3 | 3 | 0 | 0 |  |  |  |  |  | 
COP(=S)(OC)Oc1ccc([N+](=O)[O-])cc1 [methyl parathione] |  | 3 | 1 | 3 | 0 |  |  |  |  |  | 
CC[C@@]1([C@@H]2O[C@@H]([C@H]3O[C@@](O)(CO)[C@H](C)C[C@@H]3C)C[C@@H]2C)CC[C@H]([C@]2(C)CC[C@]3(C[C@H](O)[C@@H](C)[C@@H]([C@@H](C)[C@@H](OC)[C@H](C)C(=O)O)O3)O2)O1 [monensin A, reference compound] | 113.6 | 2 | 2 | 0 | 0 |  |  |  |  |  | 
C[C@@H]1[C@H](O)[C@@H](C)/C=C/C=C/CC/C=C/C=C/C=C/C=C/C(O[C@H]2O[C@H](C)[C@@H](O)[C@H](N)[C@@H]2O)CC2O[C@](O)(CC(O)C(O)CCC(O)CC(O)CC(O)CC(=O)O[C@H]1C)CC(O)C2C(=O)O (stereo partly shown) [nystatin, reference compound] | 74.5 | 2 | 2 | 0 | 0 |  |  |  |  |  | 
CC(=O)[C@H]1CC[C@H]2[C@@H]3CC=C4C[C@@H](O)CC[C@]4(C)[C@H]3CC[C@]12C [pregnenolone, reference compound] | 91.5 | 3 | 2 | 0 | 0 |  |  |  |  |  | 
COC(=O)[C@H](O)[C@H]1C(C)(C)[C@H](OC(C)=O)[C@@H]2CC3=C4CC(=O)O[C@@H](c5ccoc5)[C@]4(C)CC[C@@H]3[C@@]1(C)C2=O [swietenolide-3-acetate] |  | 2 | 2 | 2 | 2 |  |  |  |  |  | 
avermectin B1 [reference compound] |  | 3 | 2 | 2 | 2 |  |  |  |  |  | 
dihydrocelastryl diacetate | 50.7 | 2 | 0 | 3 | 0 |  |  |  |  |  | 
estrone hemisuccinate [reference compound] | 71.9 | 3 | 3 | 0 | 1 |  |  |  |  |  | 
methylnortichexanthone |  | 3 | 2 | 2 | 2 |  |  |  |  |  | 
